Tested on: Umbilical cord derived mesenchymal stem cells (UC-MSC)
Experiment: Test 4: induction of oxidative stress resistance (Rotenone treatment, nucleus count)
Assay type: cell-based
Details: Rotenone 0 nM, 100 nM, 200 nM, 500 nM, 1 μM; after 48 hours; FIG. 11
Protocol: (UC-MSC; Umbilical Cord derived Mesenchymal Stem Cells Wharton's Jelly (HMSC-WJ), FC-0020, LIFELINE CELL TECHNOLOGY Co., Ltd.; UC-MSC; Umbilical Cord derived Mesenchymal Stem Cells ScienCell Research Laboratories, Inc; and Umbilical Cord derived Mesenchymal Stem Cells ATCC) were conditioned with a recommended medium of each entity at 37° C. under 5% of CO2, and they were exchanged with the recommended medium of each entity or the medium of Example 1 (0.3-1×10^5 cells/well; 6 well plate). The passage was carried out every 2 to 3 days and those cells were treated with Rotenone of the following concentrations (0 nM, 100 nM, 200 nM, 500 nM, 1 μM). After 48 hours, these cells were stained with Hoechest33258 and the number of nucleus was counted using ImageXpress (Molecular Devices, LLC.).

C=C(C)[C@H]1Cc2c(ccc3c2O[C@@H]2COc4cc(OC)c(OC)cc4[C@@H]2C3=O)O1 [Rotenone]
cell number of UC-MSC: decreases in a concentration dependent manner
